This is an account of results in patent US20260216294A1, “BETA 2-ADRENERGIC RECEPTOR AGONISTS FOR TREATMENT OR PREVENTION OF MUSCLE WASTING” (ATROGI AB, priority 2023, published 2026).

Assay [1] concerns L6-myotubes. The experiment in a line: Measurement of intracellular cAMP levels in differentiated L6-myotubes (Biological Example 3). Format: cell-based. The settings on record: for Emax at 10 µM: 0.25 h. The gist of the method:
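Intracellular cAMP quantified by AlphaScreen after ethanol extraction and lysis of L6 myotubes. Cells were serum-starved overnight, then exposed for 15 min to compound (final 1×10^−5 M) or isoprenaline in IBMX-containing (1 mM) HBSS buffer, pH 7.4.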

The test system of assay [2] is L6-myotubes. The experiment in a line: Glucose uptake in differentiated L6-myotubes (Biological Example 2). Format: cell-based. The note with it: for Emax at 10 µM: read-out: Biological example 2 (GU). The gist of the method:
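Uptake was quantified as radioactivity in 0.2 M NaOH lysates after a 10 min pulse of 50 nM ^3H-2-deoxyglucose. The pulse followed two agonist exposures at 1×10^−5 M final (isoprenaline or test compound): 1 h 40 min, then 20 min in glucose-free medium after washing. L6 myotubes had been starved overnight in medium with 0.5% fatty-acid-free BSA.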

[3] abbreviates: intracellular cAMP, compound at 10 μM relative to isoproterenol at 10 μM.
Where [4] appears, read: glucose uptake, compound at 10 μM relative to isoproterenol at 10 μM.
[5] abbreviates: intracellular cAMP in differentiated L6-myotubes, compound at 10 μM, activity relative to isoproterenol at 10 μM.
[6] abbreviates: glucose uptake in differentiated L6-myotubes, compound at 10 μM, activity relative to isoproterenol at 10 μM.

In the case of `CCC[C@@H]1CC[C@@H]([C@@H](O)c2cccc(F)c2)N1` [Compound 133, (S)-[(2,5R)-5-propyl-2-pyrrolidinyl](m-fluorophenyl)methanol], the Emax at 10 µM in assay [1] (setting [3]) was less than 25%; in assay [2] (setting [4]), 50 to 75%.
`CC(C)(CC[C@H]1CC[C@H](C(=O)O)CC1)NC[C@H](O)c1cccc(F)c1` [Compound 348, (1R,4r)-4-{3-[(R)-2-(m-fluorophenyl)-2-hydroxyethylamino]-3-methylbutyl} cyclohexanecarboxylic acid]: the Emax at 10 µM in assay [1] (setting [5]) and in assay [2] (setting [6]) was less than 25% each time.
`CC1(C)CC[C@H]([C@H](O)c2cccc(Cl)c2)N1` [Compound 154, (R)-[(R)-5,5-dimethyl-2-pyrrolidinyl](m-chlorophenyl)methanol]: the Emax at 10 µM in assay [1] (setting [3]) was less than 25%; in assay [2] (setting [4]) it was more than 75%.
In the case of `CC1(C)CC[C@H]([C@@H](O)c2ccc(F)cc2)N1` [Compound 172], the Emax at 10 µM in assay [1] (setting [3]) and in assay [2] (setting [4]) was less than 25% each time.
In the case of `CO[C@H]1CC[C@@H](C(C)(C)NC[C@H](O)c2cccc(F)c2)CC1` [Compound 251, (R)-1-(m-fluorophenyl)-2-{1-methyl-1-[(1s,4S)-4-methoxycyclohexyl]ethylamino}-1-ethanol], the Emax at 10 µM in assay [1] (setting [5]) and in assay [2] (setting [6]) was less than 25% each time.
As to `CC(C)(NC[C@H](O)c1cncc(F)c1)[C@H]1CC[C@@H](C(=O)O)CC1` [Compound 323, (1S,4s)-8-[(R)-2-(5-fluoro-3-pyridyl)-2-hydroxyethylamino]-7-hydroxy-p-menthan-7-one], the Emax at 10 µM fell in the range of 50 to 75% in assay [1] (setting [5]) and 25 to 50% in assay [2] (setting [6]).
The corresponding values for `CS(=O)(=O)N(Cc1ccccc1)[C@H]1CC[C@H](C[C@@H]2CC[C@H]([C@@H](O)c3cccc(F)c3)N2)CC1` [Compound 503, (S)-[(2R,5S)-5-({(1r,4S)-4-[(benzyl)-N-mesylamino]cyclohexyl}methyl)-2-pyrrolidinyl](m-fluorophenyl)methanol] are less than 25% and less than 25%.
Consider `COC(=O)[C@H]1CC[C@@H](CC(C)(C)NC[C@H](O)c2cncc(F)c2)CC1` [Compound 322, methyl (1S,4s)-4-{2-[(R)-2-(5-fluoro-3-pyridyl)-2-hydroxyethylamino]-2-methylpropyl} cyclohexanecarboxylate], for which the Emax at 10 µM was less than 25% in assay [1] (setting [5]) and more than 75% in assay [2] (setting [6]).
In the case of `CCC[C@H]1CCC[C@H]([C@@H](O)c2ccc(F)c(F)c2)N1` [Compound 65], the Emax at 10 µM in assay [1] (setting [3]) is less than 25%; in assay [2] (setting [4]), 25 to 50%.
Turning to `CC(C)(C)NC[C@H](O)c1cccc(C(F)(F)F)n1` [Compound 397, (S)-2-(tert-butylamino)-1-[6-(trifluoromethyl)-2-pyridyl]-1-ethanol], the Emax at 10 µM was less than 25% in assay [1] (setting [5]) and more than 75% in assay [2] (setting [6]).
With `OC(CNCC1CCCCC1)c1ccccc1` (stereo not drawn) [Compound 7, 2-[(cyclohexylmethyl)amino]-1-phenyl-1-ethanol], the Emax at 10 µM in assay [1] (setting [3]) is less than 25%; in assay [2] (setting [4]), 25 to 50%.
Consider `CC(=O)N[C@H]1CC[C@H](CC(C)(C)NC[C@H](O)c2cccc(C(F)(F)F)n2)CC1` [Compound 460], for which the Emax at 10 µM in assay [1] (setting [5]) was less than 25%; in assay [2] (setting [6]) it was 50 to 75%.
For `O[C@@H](c1cncc(F)c1)[C@H]1CC[C@@H](Cc2ccc(Cl)cc2)N1` [Compound 403, (S)-{(2R,5S)-5-[(p-chlorophenyl)methyl]-2-pyrrolidinyl}(5-fluoro-3-pyridyl)methanol] the same measures were less than 25% and 50 to 75%.
Consider `O[C@H](c1cncc(F)c1)[C@H]1CC[C@@H](Cc2ccc(Cl)cc2)N1` [Compound 404, (R)-{(2R,5S)-5-[(p-chlorophenyl)methyl]-2-pyrrolidinyl}(5-fluoro-3-pyridyl)methanol], for which the values for the Emax at 10 µM in assay [1] (setting [5]) and in assay [2] (setting [6]) were less than 25% and more than 75%, respectively.
Regarding `CCCCNC(C)C(O)c1ccc(O)cc1` (stereo not drawn) [Compound 12, 2-(butylamino)-1-(p-hydroxyphenyl)-1-propanol], the values for the Emax at 10 µM in assay [1] (setting [3]) and in assay [2] (setting [4]) were less than 25% and 50 to 75%, respectively.
With `CC(C)(C)NC[C@H](O)c1cccc(C#N)n1` [Compound 387, 6-[(S)-2-(tert-butylamino)-1-hydroxyethyl]-2-pyridinecarbonitrile], the Emax at 10 µM is 25 to 50% in assay [1] (setting [5]) and more than 75% in assay [2] (setting [6]).
For `O[C@@H](CNCCC[C@H]1CC[C@H](O)CC1)c1cccc(F)c1` [Compound 303, (R)-1-(m-fluorophenyl)-2-{3-[(1r,4S)-4-hydroxycyclohexyl]propylamino}-1-ethanol], the Emax at 10 µM in assay [1] (setting [5]) is less than 25%; in assay [2] (setting [6]), 50 to 75%.
Turning to `CC12CCC([C@@H](O)c3cncc(F)c3)(CC1)N2` [Compound 184, (S)-(5-fluoro-3-pyridyl)(4-methyl-7-azabicyclo[[2.2.1]]hept-1-yl)methanol], the Emax at 10 µM in assay [1] (setting [3]) was less than 25%; in assay [2] (setting [4]) it was 50 to 75%.
For the molecule `CCCCNC[C@H](O)c1cccc(N)c1F` [Compound 90, (R)-1-(3-amino-2-fluorophenyl)-2-(butylamino)-1-ethanol], the Emax at 10 µM in assay [1] (setting [3]) is less than 25%; in assay [2] (setting [4]) it was 50 to 75%.
In the case of `O[C@@H](CNCCC[C@H]1CC[C@H](OCc2ccccc2)CC1)c1cncc(F)c1` [Compound 276, (R)-1-(5-fluoro-3-pyridyl)-2-{3-[(1r,4S)-4-(benzyloxy)cyclohexyl]propylamino}-1-ethanol], the values for the Emax at 10 µM in assay [1] (setting [5]) and in assay [2] (setting [6]) were less than 25% and 25 to 50%, respectively.
For the molecule `CS(=O)(=O)Nc1cccc(CC23CCC([C@@H](O)c4cccc(F)c4)(CC2)N3)c1` [Compound 515, (R)-(m-fluorophenyl)(4-{[m-(mesylamino)phenyl]methyl}-7-azabicyclo[[2.2.1]]hept-1-yl)methanol], the “Biological example 3 (CAMP)” value in assay [1] (setting [5]) was “+ (if it is between 50 and 25% it is denoted with +)”. Further, the “Biological example 2 (GU)” value in assay [2] (setting [6]) was “++ (if it is between 75 and 50% it is denoted with ++)”.
Regarding `CCC[C@@H]1CCC[C@H]([C@H](O)c2cccc(F)c2)N1` [Compound 59, (R)-[(2R,6R)-6-propyl-2-piperidyl](m-fluorophenyl)methanol], the Emax at 10 µM in assay [1] (setting [3]) is less than 25%; in assay [2] (setting [4]), 25 to 50%.
With `COC(=O)[C@H]1CC[C@H](CC(C)(C)NC[C@H](O)c2cccc(F)c2)CC1` [Compound 353, methyl (1R,4r)-4-{2-[(R)-2-(m-fluorophenyl)-2-hydroxyethylamino]-2-methylpropyl} cyclohexanecarboxylate], the Emax at 10 µM is less than 25% in assay [1] (setting [5]) and more than 75% in assay [2] (setting [6]).
For `CCC[C@@H]1CC[C@H]([C@H](O)c2ccccc2Cl)N1` [Compound 148, (R)-[(2R,5R)-5-propyl-2-pyrrolidinyl](o-chlorophenyl)methanol], the Emax at 10 µM in assay [1] (setting [3]) is less than 25%; in assay [2] (setting [4]) it was more than 75%.
Take `CO[C@@H]1CCC[C@H](C(C)(C)NC[C@H](O)c2cncc(F)c2)C1` [Compound 257, (R)-2-{1-[(1S,3R)-3-methoxycyclohexyl]-1-methylethylamino}-1-(5-fluoro-3-pyridyl)-1-ethanol]: the figures for the Emax at 10 µM in assay [1] (setting [5]) and in assay [2] (setting [6]) were less than 25% and 50 to 75%, respectively.
For `CC(C)(C[C@H]1CC[C@H](NC(=O)c2ccccc2)CC1)NC[C@H](O)c1cccc(F)c1` [Compound 384] the same measures were more than 75% and more than 75%.
For `CC(C)(C[C@H]1CC[C@@H](S(N)(=O)=O)CC1)NC[C@H](O)c1cncc(F)c1` [Compound 519, (1S,4s)-4-{2-[(R)-2-(5-fluoro-3-pyridyl)-2-hydroxyethylamino]-2-methylpropyl} cyclohexanesulfonamide] the same measures were less than 25% and more than 75%.
For the molecule `CCCCNC[C@H](O)c1cnc(NC(=O)C(C)C)s1` [Compound 74, N-{5-[(S)-2-(butylamino)-1-hydroxyethyl]-1,3-thiazol-2-yl}2-methylpropionamide], the Emax at 10 µM was less than 25% in assay [1] (setting [3]) and 25 to 50% in assay [2] (setting [4]).
For `CCC[C@@H]1CCC[C@@H]([C@H](O)c2cccc(F)c2)N1` [Compound 116] the same measures were less than 25% and 25 to 50%.
On to `O[C@H](c1cncc(F)c1)C12CCC(CCc3ccc(OC(F)(F)F)cc3)(CC1)N2` [Compound 545, (R)-(5-fluoro-3-pyridyl){4-[2-(p-trifluoromethoxyphenyl)ethyl]-7-azabicyclo[[2.2.1]]hept-1-yl}methanol], for which the Emax at 10 µM in assay [1] (setting [5]) and in assay [2] (setting [6]) was less than 25% in each case.
As for `CC12CC(C1)[C@H]([C@@H](O)c1cncc(F)c1)N2` [Compound 222, (S)-{(R)-1-methyl-2-azabicyclo[[2.1.1]]hex-3-yl}(5-fluoro-3-pyridyl)methanol], the Emax at 10 µM in assay [1] (setting [5]) and in assay [2] (setting [6]) was less than 25% throughout.
For the molecule `CC12CCC([C@@H](O)c3cccc(Cl)c3)(CC1)N2` [Compound 196, (S)-(m-chlorophenyl)(4-methyl-7-azabicyclo[[2.2.1]]hept-1-yl)methanol], the Emax at 10 µM is less than 25% in assay [1] (setting [3]) and 25 to 50% in assay [2] (setting [4]).
For the molecule `O=C(N[C@H]1CC[C@@H](CNC[C@H](O)c2cccc(F)c2)CC1)c1ccccc1` [Compound 316], the Emax at 10 µM in assay [1] (setting [5]) is less than 25%; in assay [2] (setting [6]) it was 50 to 75%.
